In patent US10590113B2, “6-hydroxy-4-oxo-1,4-dihydropyrimidine-5-carboxamides as APJ agonists” (priority 2016, dated 2020):

Target: T1, human APJ receptor (Homo sapiens, UniProt P35414)
T1 construct: expressed in transfected cells; host or cells: HEK293
T1 sequence (P35414 1-380): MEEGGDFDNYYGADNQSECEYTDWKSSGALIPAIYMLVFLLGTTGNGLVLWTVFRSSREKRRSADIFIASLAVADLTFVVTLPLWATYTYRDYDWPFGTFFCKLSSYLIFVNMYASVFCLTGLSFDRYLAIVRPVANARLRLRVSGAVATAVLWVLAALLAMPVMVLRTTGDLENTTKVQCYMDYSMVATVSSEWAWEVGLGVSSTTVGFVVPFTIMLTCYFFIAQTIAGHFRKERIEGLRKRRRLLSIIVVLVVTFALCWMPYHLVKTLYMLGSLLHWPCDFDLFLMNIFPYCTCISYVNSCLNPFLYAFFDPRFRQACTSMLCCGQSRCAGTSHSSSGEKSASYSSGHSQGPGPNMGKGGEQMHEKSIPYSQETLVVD
Assay: Intracellular cAMP Accumulation Assay (APJ hcAMP, HTRF)
Type: cell-based
Details: human APJ, cAMP accumulation; potency range class; read-out: hAPJ cAMP EC50 Potency range
Procedure, shortened: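 Stably transfected HEK293 cells (5,000/well) incubated 30 min at room temperature with serially diluted compound, […] and 2 μM forskolin. cAMP measured by HTRF after 60 min with detection reagents, quantified against a cAMP standard curve; EC50 from variable-slope sigmoidal fit of inhibition of forskolin-stimulated cAMP.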

SMILES	EC50
COc1cccc(OC)c1-n1c(-c2ccnc(C)c2)nc(=O)c(C(=O)N2CCC(c3ccc(F)cc3F)C2)c1O (single isomer, unassigned) [Example 254, 5-[3-(2,4-difluorophenyl)pyrrolidine-1-carbonyl]-1-(2,6-dimethoxyphenyl)-6-hydroxy-2-(2-methylpyridin-4-yl)-1,4-dihydropyrimidin-4-one]	0.01 to 10 nM
COc1cccc(OC)c1-n1c(-c2ccc(F)c(C)c2)nc(=O)c(C(=O)N2CCC(c3ncccc3F)C2)c1O (single isomer, unassigned) [Example 255, 1-(2,6-dimethoxyphenyl)-2-(4-fluoro-3-methylphenyl)-5-[3-(3-fluoropyridin-2-yl)pyrrolidine-1-carbonyl]-6-hydroxy-1,4-dihydropyrimidin-4-one]	0.01 to 10 nM
COc1cccc(OC)c1-n1c(-c2ccc(F)c(C)c2)nc(=O)c(C(=O)N2CCC(c3ncc(F)cc3F)C2)c1O (single isomer, unassigned) [Example 256, 5-[3-(3,5-difluoropyridin-2-yl)pyrrolidine-1-carbonyl]-1-(2,6-dimethoxyphenyl)-2-(4-fluoro-3-methylphenyl)-6-hydroxy-1,4-dihydropyrimidin-4-one]	0.01 to 10 nM
COc1cccc(OC)c1-n1c(-c2ccnc(C)c2)nc(=O)c(C(=O)N2CCC(c3c(F)cccc3F)C2)c1O (single isomer, unassigned) [Example 257, 5-[3-(2,6-difluorophenyl)pyrrolidine-1-carbonyl]-1-(2,6-dimethoxyphenyl)-6-hydroxy-2-(2-methylpyridin-4-yl)-1,4-dihydropyrimidin-4-one]	0.01 to 10 nM
COc1cccc(OC)c1-n1c(-c2ccn(C)n2)nc(=O)c(C(=O)N2CCC(c3ncc(Cl)cc3F)C2)c1O (single isomer, unassigned) [Example 259, 5-[3-(5-chloro-3-fluoropyridin-2-yl)pyrrolidine-1-carbonyl]-1-(2,6-dimethoxyphenyl)-6-hydroxy-2-(1-methyl-1H-pyrazol-3-yl)-1,4-dihydropyrimidin-4-one]	0.01 to 10 nM
COc1cccc(OC)c1-n1c(-c2cncc(Cl)c2)nc(=O)c(C(=O)N2CCC(c3ccc(F)cc3F)C2)c1O (single isomer, unassigned) [Example 260, 2-(5-chloropyridin-3-yl)-5-[3-(2,4-difluorophenyl)pyrrolidine-1-carbonyl]-1-(2,6-dimethoxyphenyl)-6-hydroxy-1,4-dihydropyrimidin-4-one]	0.01 to 10 nM
COc1cccc(-c2nc(=O)c(C(=O)N3CCC(c4ncc(Cl)cc4F)C3)c(O)n2-c2c(OC)cccc2OC)c1 (single isomer, unassigned) [Example 261, 5-[3-(5-chloro-3-fluoropyridin-2-yl)pyrrolidine-1-carbonyl]-1-(2,6-dimethoxyphenyl)-6-hydroxy-2-(3-methoxyphenyl)-1,4-dihydropyrimidin-4-one]	0.01 to 10 nM
COc1cccc(OC)c1-n1c(-c2cc(C)ccn2)nc(=O)c(C(=O)N2CCC(c3ccc(F)cc3F)C2)c1O (single isomer, unassigned) [Example 262, 5-[3-(2,4-difluorophenyl)pyrrolidine-1-carbonyl]-1-(2,6-dimethoxyphenyl)-6-hydroxy-2-(4-methylpyridin-2-yl)-1,4-dihydropyrimidin-4-one]	0.01 to 10 nM
COc1cccc(OC)c1-n1c(-c2cccc(C)c2)nc(=O)c(C(=O)N2CCC(c3ncc(Cl)cc3F)C2)c1O (single isomer, unassigned) [Example 263, 5-[3-(5-chloro-3-fluoropyridin-2-yl)pyrrolidine-1-carbonyl]-1-(2,6-dimethoxyphenyl)-6-hydroxy-2-(3-methylphenyl)-1,4-dihydropyrimidin-4-one]	0.01 to 10 nM
COc1cccc(OC)c1-n1c(-c2cccc(Cl)c2)nc(=O)c(C(=O)N2CCC(c3ncc(Cl)cc3F)C2)c1O (single isomer, unassigned) [Example 264, 5-[3-(5-chloro-3-fluoropyridin-2-yl)pyrrolidine-1-carbonyl]-2-(3-chlorophenyl)-1-(2,6-dimethoxyphenyl)-6-hydroxy-1,4-dihydropyrimidin-4-one]	0.01 to 10 nM
COc1cccc(OC)c1-n1c(-c2ccc(F)cc2)nc(=O)c(C(=O)N2CCC(c3ncc(Cl)cc3F)C2)c1O (single isomer, unassigned) [Example 265, 5-[3-(5-chloro-3-fluoropyridin-2-yl)pyrrolidine-1-carbonyl]-1-(2,6-dimethoxyphenyl)-2-(4-fluorophenyl)-6-hydroxy-1,4-dihydropyrimidin-4-one]	0.01 to 10 nM
CCn1ccc(-c2nc(=O)c(C(=O)N3CCC(c4ccc(F)cc4F)C3)c(O)n2-c2c(OC)cccc2OC)n1 (single isomer, unassigned) [Example 269, 5-[3-(2,4-difluorophenyl)pyrrolidine-1-carbonyl]-1-(2,6-dimethoxyphenyl)-2-(1-ethyl-1H-pyrazol-3-yl)-6-hydroxy-1,4-dihydropyrimidin-4-one]	0.01 to 10 nM
COc1cccc(OC)c1-n1c(-c2csc(C)n2)nc(=O)c(C(=O)N2CCC(c3c(F)cccc3F)C2)c1O (single isomer, unassigned) [Example 270, 5-[3-(2,6-difluorophenyl)pyrrolidine-1-carbonyl]-1-(2,6-dimethoxyphenyl)-6-hydroxy-2-(2-methyl-1,3-thiazol-4-yl)-1,4-dihydropyrimidin-4-one]	0.01 to 10 nM
COc1cccc(OC)c1-n1c(-c2nc(C)cs2)nc(=O)c(C(=O)N2CCC(c3c(F)cccc3F)C2)c1O (single isomer, unassigned) [Example 271, 5-[3-(2,6-difluorophenyl)pyrrolidine-1-carbonyl]-1-(2,6-dimethoxyphenyl)-6-hydroxy-2-(4-methyl-1,3-thiazol-2-yl)-1,4-dihydropyrimidin-4-one]	0.01 to 10 nM
CCc1cccc(CC)c1-n1c(-c2ccn(C)n2)nc(=O)c(C(=O)N2CCC(c3ccc(F)cc3)C2)c1O (single isomer, unassigned) [Example 272, 1-(2,6-diethylphenyl)-5-[3-(4-fluorophenyl)pyrrolidine-1-carbonyl]-6-hydroxy-2-(1-methyl-1H-pyrazol-3-yl)-1,4-dihydropyrimidin-4-one]	0.01 to 10 nM
COc1ccnc(-c2nc(=O)c(C(=O)N3CCC(c4c(F)cccc4F)C3)c(O)n2-c2c(OC)cccc2OC)c1 (single isomer, unassigned) [Example 273, 5-[3-(2,6-difluorophenyl)pyrrolidine-1-carbonyl]-1-(2,6-dimethoxyphenyl)-6-hydroxy-2-(4-methoxypyridin-2-yl)-1,4-dihydropyrimidin-4-one]	0.01 to 10 nM

Other lines, results leading:

EC50	SMILES
0.01 to 10 nM	COc1cccc(OC)c1-n1c(-c2ccc(C)cn2)nc(=O)c(C(=O)N2CCC(c3c(F)cccc3F)C2)c1O (single isomer, unassigned) [Example 274, 5-[3-(2,6-difluorophenyl)pyrrolidine-1-carbonyl]-1-(2,6-dimethoxyphenyl)-6-hydroxy-2-(5-methylpyridin-2-yl)-1,4-dihydropyrimidin-4-one]
0.01 to 10 nM	CCn1ccc(-c2nc(=O)c(C(=O)N3CCC(c4c(F)cccc4F)C3)c(O)n2-c2c(OC)cccc2OC)n1 (single isomer, unassigned) [Example 276, 5-[3-(2,6-difluorophenyl)pyrrolidine-1-carbonyl]-1-(2,6-dimethoxyphenyl)-2-(1-ethyl-1H-pyrazol-3-yl)-6-hydroxy-1,4-dihydropyrimidin-4-one]
0.01 to 10 nM	COc1ccnc(-c2nc(=O)c(C(=O)N3CCC(c4ccc(F)cc4F)C3)c(O)n2-c2c(OC)cccc2OC)c1 (single isomer, unassigned) [Example 278, 5-[3-(2,4-difluorophenyl)pyrrolidine-1-carbonyl]-1-(2,6-dimethoxyphenyl)-6-hydroxy-2-(4-methoxypyridin-2-yl)-1,4-dihydropyrimidin-4-one]
0.01 to 10 nM	COc1cccc(OC)c1-n1c(-c2ccc(Cl)nc2)nc(=O)c(C(=O)N2CCC(c3ccc(F)cc3F)C2)c1O (single isomer, unassigned) [Example 279, 2-(6-chloropyridin-3-yl)-5-[3-(2,4-difluorophenyl)pyrrolidine-1-carbonyl]-1-(2,6-dimethoxyphenyl)-6-hydroxy-1,4-hydropyrimidin-4-one]
0.01 to 10 nM	COc1cccc(OC)c1-n1c(-c2ccc(Cl)cn2)nc(=O)c(C(=O)N2CCC(c3c(F)cccc3F)C2)c1O (single isomer, unassigned) [Example 280, 2-(5-chloropyridin-2-yl)-5-[3-(2,6-difluorophenyl)pyrrolidine-1-carbonyl]-1-(2,6-dimethoxyphenyl)-6-hydroxy-1,4-dihydropyrimidin-4-one]
0.01 to 10 nM	COc1cccc(OC)c1-n1c(-c2ccc(Cl)nc2)nc(=O)c(C(=O)N2CCC(c3c(F)cccc3F)C2)c1O (single isomer, unassigned) [Example 281, 2-(6-chloropyridin-3-yl)-5-[3-(2,6-difluorophenyl)pyrrolidine-1-carbonyl]-1-(2,6-dimethoxyphenyl)-6-hydroxy-1,4-dihydropyrimidin-4-one]
0.01 to 10 nM	COc1cccc(OC)c1-n1c(-c2ccc(Cl)cn2)nc(=O)c(C(=O)N2CCC(c3ccc(F)cc3F)C2)c1O (single isomer, unassigned) [Example 287, 2-(5-chloropyridin-2-yl)-5-[3-(2,4-difluorophenyl)pyrrolidine-1-carbonyl]-1-(2,6-dimethoxyphenyl)-6-hydroxy-1,4-dihydropyrimidin-4-one]
